# Source: patent publication US9655906B2, “Tricyclic indazole compound, method of preparation and pharmaceutical composition containing it” (AZIENDE CHIMICHE RIUNITE ANGELINI FRANCESCO A.C.R.A.F S.p.A., priority 2010, dated 2017)
# Where a name gives a salt, the structure may show the parent alone.
# Legend:
# human 5-HT2A receptor = biological target: T1, human 5-HT2A receptor (Homo sapiens, UniProt P28223); experiment: Test A: binding to human recombinant 5-HT2A serotonin receptor, [3H]-ketanserin displacement; conditions: membranes from CHO-K1 cells expressing human 5-HT2A; 0.5 nM [3H]-ketanserin; 1 hour at 25° C.; read-out: 5-HT2A (pKi) (converted)
# T1 construct: expressed in transfected cells
# T1 sequence (P28223 whole entry): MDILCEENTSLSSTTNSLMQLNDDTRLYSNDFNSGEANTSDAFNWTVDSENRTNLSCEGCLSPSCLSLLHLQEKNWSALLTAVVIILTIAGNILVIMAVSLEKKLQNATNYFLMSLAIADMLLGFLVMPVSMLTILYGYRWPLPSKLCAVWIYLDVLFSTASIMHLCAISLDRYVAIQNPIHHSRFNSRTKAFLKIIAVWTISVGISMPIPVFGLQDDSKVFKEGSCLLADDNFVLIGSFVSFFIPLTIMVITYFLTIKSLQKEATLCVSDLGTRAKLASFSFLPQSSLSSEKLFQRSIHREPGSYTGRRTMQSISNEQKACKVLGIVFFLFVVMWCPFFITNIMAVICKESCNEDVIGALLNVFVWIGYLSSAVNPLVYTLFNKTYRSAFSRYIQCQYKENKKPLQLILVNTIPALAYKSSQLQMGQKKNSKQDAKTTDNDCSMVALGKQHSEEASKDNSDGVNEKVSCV
# Description: In particular, binding to the human 5-HT2A serotonin receptor was performed using, as starting material, a preparation of membranes from stable recombinant CHO-K1 cell line expressing the human 5-HT2A receptor.
# The non-specific binding was measured in the presence of 1 μM mianserin. The assay was conducted in Tris-HCl 50 mM buffer (pH 7.4 at 37° C.), with incubation for 1 hour at 25° C. The test compounds were dissolved in DMSO, then diluted in buffer (final DMSO concentration 0.01%) and plated on 96-well plates. The compounds were tested in duplicate in an 8-points concentration response curve (in a Log scale ranging from 10^−12 to 10^−5 M).
# After incubation, the membranes were filtered on glass-fibre filters (GF/B) (Unifilter, Packard) treated with 0.5% polyethyleneimine. Then the filters were washed with buffer solution and oven-dried for 30 minutes at 45° C. The scintillation liquid was added to each well, and at least 16 hours later the radioactivity was measured for 1 minute using a TopCount (Packard).
# The IC50 values for each compound were calculated using non-linear regression analysis (GraphPad PRISM software) and the inhibition constants Ki were determined using the equation described by Cheng Y. and Prussof W. H. (1973) “Relationship between the inhibition constant (Ki) and the concentration of inhibitor which causes 50 percent inhibition (I50) of an enzyme reaction.” Biochem. Pharmacol. 22: 3099-3108.
# human 5-HT2C receptor = biological target: T2, human 5-HT2C receptor (Homo sapiens, UniProt P28335); experiment: Test B: binding to human 5-HT2C serotonin receptor, [3H]-mesulergine displacement; conditions: membranes from CHO-K1 cells expressing human 5-HT2C; 1 nM [3H]-mesulergine; 1 hour at 25° C.; read-out: (h)5-HT2c (pKi) (converted)
# T2 construct: expressed in transfected cells
# T2 sequence (P28335 33-458): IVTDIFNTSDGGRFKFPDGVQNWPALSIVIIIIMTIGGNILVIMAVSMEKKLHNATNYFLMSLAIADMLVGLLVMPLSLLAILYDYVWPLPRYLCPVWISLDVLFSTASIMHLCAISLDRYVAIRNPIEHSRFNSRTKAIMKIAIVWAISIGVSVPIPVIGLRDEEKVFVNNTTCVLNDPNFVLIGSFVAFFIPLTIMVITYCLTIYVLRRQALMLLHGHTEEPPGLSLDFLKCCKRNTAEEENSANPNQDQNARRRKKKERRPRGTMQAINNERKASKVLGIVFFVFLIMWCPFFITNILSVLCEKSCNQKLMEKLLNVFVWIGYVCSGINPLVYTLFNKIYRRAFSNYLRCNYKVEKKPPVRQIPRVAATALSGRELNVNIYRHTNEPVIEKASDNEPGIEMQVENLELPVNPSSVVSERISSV
# Description: 69: 1449-1458. In particular, binding to the human serotonin 5-HT2C receptor was performed using, as starting material, a preparation of membranes from stable recombinant CHO-K1 cell line expressing the human 5-HT2C receptor. […] The non-specific binding was measured in the presence of 1 μM mianserin. The assay was conducted in Tris-HCl 50 mM buffer (pH 7.4 at 37° C.), 0.1% Ascorbic Acid, 10 μM Pargyline, with incubation for 1 hour at 25° C. The test compounds were dissolved in DMSO, then diluted in buffer (final DMSO concentration 0.01%) and plated on 96-well plates The compounds were tested in duplicate in an 8-points concentration response curve (in a Log scale ranging from 10^−12 to 10^−5 M). SB 242084 was used as reference compound. […] Then the filters were washed with buffer solution and oven-dried for 30 minutes at 45° C. The scintillation liquid was added to each well, and at least 16 hours later the radioactivity was measured for 1 minute using a TopCount (Packard). The IC50 values for each compound were calculated using non-linear regression analysis (GraphPad PRISM software) and the inhibition constants Ki were determined using the equation described by Cheng Y. and Prussof W. H. […] Pharmacol. 22: 3099-3108.
# serotoninergic system = experiment: Test C: 5-HTP-induced head twitch test in mice; assay type: in vivo, mouse; conditions: male CD-1 mice; 5 mg/kg intraperitoneally; 5-HTP 300 mg/kg i.p. 30 min later; counted 24 to 26 minutes after 5-HTP
# Description: The interactions of the compounds of formula (I) according to the present invention with the serotoninergic system was tested following the “head twitch” model in the mouse, according to the standard methodology described by Sztanke K., Fidecka S., Kedzierska E., Karczmarzyk Z., Pihlaja K., Matosiuk D. (2005) in “Antionociceptive activity of new imidazole carbonyl derivatives. Part 4. Synthesis and pharmacological activity of 8-aryl-3,4-dioxo-2H,8H-6,7-dihydrimidazo[2,1c][1,2,4]triazine.” Eur. J. Med. Chem. 40: 127-134, and in Corne S. J., Pickering R. W., Warner B. T. (1963) “A method for assessing the effects of drugs on the central actions of 5-hydroxytryptamine.” Br. J. Pharmacol. Chemother. 20: 106-120.
# The “head twitches” are a characteristic shaking of the head induced in the animals by the increase in central levels of serotonin.
# Male CD-1 mice weighing 25-30 g were used for the “head twitch” test. Molecules were suspended in a 0.5% methylcellulose aqueous solution (MTC) and the animals were treated intraperitoneally with the test compounds at the dose of 5 mg/kg (10 ml/kg body weight). The control animals received the vehicle alone (MTC) by the same route. Head twitches, considered as a specific behavioural model for the activation of serotoninergic neurons, were induced by an intraperitoneal administration of 5-hydroxytryptophan (5-HTP), a precursor of serotonin (5-HT), dissolved in a 0.5% MTC solution and given at 300 mg/kg 30 min following drug administration.
# The number of head twitches, which constitutes the parameter for assessment of the serotoninergic response, was measured in the interval from 24 to 26 minutes after administration of 5-HTP.
Compound,Ki (human 5-HT2A receptor),Ki (human 5-HT2C receptor),% INHIBITION (number of head twitches vs vehicle treated group) (serotoninergic system)
"Cl.O=C1c2c3ccccc3nn2CCN1CC1CCN(CCc2ccc(F)cc2)CC1 [Compound 1, 2-({1-[2-(4-fluorophenyl)ethyl]piperidin-4-yl}methyl)-3,4-dihydropyrazino[1,2-b]indazol-1(2H)-one hydrochloride]",0.0195 µM,1.7 µM,50%
"O=C1c2c3ccccc3nn2CCN1CC1CCCN(CCc2ccc(F)cc2)C1 (stereo not shown) [Compound 2, 2-({1-[2-(4-fluorophenyl)ethyl]piperidin-3-yl}methyl)-3,4-dihydropyrazino[1,2-b]indazol-1(2H)-one]",1.15 µM,–,–
"O=C1c2c3ccccc3nn2CCN1CC1CCCN(CCc2ccccc2F)C1 (stereo not shown) [Compound 5, 2-({1-[2-(2-fluorophenyl)ethyl]piperidin-3-yl}methyl)-3,4-dihydropyrazino[1,2-b]indazol-1(2H)-one hydrochloride]",0.692 µM,–,–
"O=C1c2c3ccccc3nn2CCN1CC1CCN(CCc2ccccc2F)CC1 [Compound 8, 2-({1-[2-(2-fluorophenyl)ethyl]piperidin-4-yl}methyl)-3,4-dihydropyrazino[1,2-b]indazol-1(2H)-one]",0.00182 µM,–,70%
"O=C1c2c3ccccc3nn2CCCN1CC1CCCN(CCc2ccc(F)cc2)C1 (stereo not shown) [Compound 10, 2-({1-[2-(4-fluorophenyl)ethyl]piperidin-3-yl}methyl)-2,3,4,5-tetrahydro-1H-[1,4]diazepino[1,2-b]indazol-1-one dihydrochloride]",0.275 µM,–,–
"O=C1c2c3ccccc3nn2CCCN1CC1CCCN(CCc2ccccc2F)C1 (stereo not shown) [Compound 13, 2-({1-[2-(2-fluorophenyl)ethyl]piperidin-3-yl}methyl)-2,3,4,5-tetrahydro-1H-[1,4]diazepino[1,2-b]indazol-1-one dihydrochloride]",0.257 µM,–,–
"Cl.O=C1c2c3ccccc3nn2CCCN1CC1CCN(CCc2ccc(F)cc2)CC1 [Compound 16, 2-({1-[2-(4-fluorophenyl)ethyl]piperidin-4-yl}methyl)-2,3,4,5-tetrahydro-1H-[1,4]diazepino[1,2-b]indazol-1-one hydrochloride]",0.00724 µM,> 10 µM,56%
"O=C1c2c3c(nn2CCN1CC1CCN(CCc2ccc(F)cc2)CC1)CCCC3 [Compound 17, 2-({1-[2-(4-fluorophenyl)ethyl]piperidin-4-yl}methyl)-3,4,7,8,9,10-esahydropyrazino[1,2-b]indazol-1(2H)-one hydrochloride]",0.0295 µM,7.41 µM,32%
"O=C1c2c3ccccc3nn2CCN1CC1CCN(CCc2ccccc2)CC1 [Compound 20, 2-[(1-phenethylpiperidin-4-yl)methyl]-3,4-dihydropyrazino[1,2-b]indazol-1(2H)-one hydrochloride]",0.0166 µM,–,–
"O=C1c2c3ccccc3nn2CCCN1CC1CCN(CCc2ccccc2)CC1 [Compound 22, 2-[(1-phenethylpiperidin-4-yl)methyl]-2,3,4,5-tetrahydro-1H-[1,4]diazepino[1,2-b]indazol-1-one]",0.0209 µM,–,–
"O=C1c2c3ccccc3nn2CCN1CCCN1CCC(c2ccccc2)CC1 [Compound 28, 2-[3-(4-phenylpiperidin-1-yl)propyl]-3,4-dihydropyrazino[1,2-b]indazol-1(2H)-one hydrochloride]",0.0741 µM,> 10 µM,–
"O=C1c2c3ccccc3nn2CCCN1CCCN1CCC(c2ccccc2)CC1 [Compound 31, 2-[3-(4-phenylpiperidin-1-yl)propyl]-2,3,4,5-tetrahydro-1H-[1,4]diazepino[1,2-b]indazol-1-one hydrochloride]",0.0457 µM,> 10 µM,–
"Cc1cc2c(cc1Cl)N(C(=O)Nc1ccc(Oc3cccnc3C)nc1)CC2 [SB 242084, reference compound]",–,0.000468 µM,–
